Data from ChEMBL document CHEMBL1201862, “PubChem BioAssay data set” (2004).
The source made the active and inactive calls.

Experiments:
[1] = molecular target: T1, Voltage-gated N-type calcium channel alpha-1B subunit/Amyloid beta A4 precursor protein-binding family A member 1 (Homo sapiens, UniProt Q00975+Q02410); format: protein assay
Large T antigen = Large T antigen (Simian virus 40, UniProt P03070); format: functional, Betapolyomavirus macacae;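 further: Confirmatory-stage PubChem screen for compounds that inhibit SV40 T antigen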
Chain of Large T antigen (P03070 whole entry): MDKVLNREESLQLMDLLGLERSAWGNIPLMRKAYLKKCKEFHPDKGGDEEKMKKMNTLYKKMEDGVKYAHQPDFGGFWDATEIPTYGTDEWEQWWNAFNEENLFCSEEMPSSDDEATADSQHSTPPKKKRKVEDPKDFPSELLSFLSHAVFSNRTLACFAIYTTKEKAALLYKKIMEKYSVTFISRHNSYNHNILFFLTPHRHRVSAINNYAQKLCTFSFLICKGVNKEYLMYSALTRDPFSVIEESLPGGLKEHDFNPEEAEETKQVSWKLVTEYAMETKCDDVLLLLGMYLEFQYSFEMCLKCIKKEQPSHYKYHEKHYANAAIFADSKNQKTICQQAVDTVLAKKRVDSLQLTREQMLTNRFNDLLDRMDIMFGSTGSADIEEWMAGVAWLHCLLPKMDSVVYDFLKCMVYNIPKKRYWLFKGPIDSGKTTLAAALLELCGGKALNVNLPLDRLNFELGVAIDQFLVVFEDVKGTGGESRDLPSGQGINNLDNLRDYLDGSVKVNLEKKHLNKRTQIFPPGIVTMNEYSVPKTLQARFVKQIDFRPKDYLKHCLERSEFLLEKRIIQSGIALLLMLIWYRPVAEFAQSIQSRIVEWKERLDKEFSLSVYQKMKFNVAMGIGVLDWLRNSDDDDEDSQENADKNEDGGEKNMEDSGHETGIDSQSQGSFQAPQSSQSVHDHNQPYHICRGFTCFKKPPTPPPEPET

[2] = NIH3T3 cell viability loss – ATP luminescence, mouse fibroblasts, counter-screen, dose response (AID 2010); format: functional, cell-based;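 further: cells exposed to compound for about 90 hours before reading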
[3] = Trypanosoma cruzi growth suppression in host cells – NIH3T3 host cells, beta-gal luminescence, confirmation (AID 2044); format: functional, cell-based;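 further: intracellular parasites grown in NIH/3T3 mouse fibroblasts as host cells; luminescent beta-galactosidase reporter signal from transgenic T. cruzi replicating inside host cells; inhibitors lower the luminescence signal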
[4] = molecular target: T1, Voltage-gated N-type calcium channel alpha-1B subunit/Amyloid beta A4 precursor protein-binding family A member 1; format: protein assay; remark: listed apart in the source
Phosphomannomutase 2 = molecular target: T2, Phosphomannomutase 2 (Homo sapiens, UniProt O15305); experiment: Counter screen SAR assay for PMM2 inhibitors via a fluorescence intensity assay. [Related pubchem assays (depositor defined):AID1545, AID1574]
T2 sequence (O15305 whole entry): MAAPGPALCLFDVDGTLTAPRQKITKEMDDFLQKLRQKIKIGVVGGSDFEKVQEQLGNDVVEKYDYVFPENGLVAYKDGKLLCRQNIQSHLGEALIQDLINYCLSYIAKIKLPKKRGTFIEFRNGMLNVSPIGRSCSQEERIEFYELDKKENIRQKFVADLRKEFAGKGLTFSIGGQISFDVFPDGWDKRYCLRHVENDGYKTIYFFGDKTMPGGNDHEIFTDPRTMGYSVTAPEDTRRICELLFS

[5] = molecular target: T3, Mannose-6-phosphate isomerase (Homo sapiens, UniProt P34949); experiment: phosphomannose isomerase inhibition – biochemical, fluorescence intensity, confirmation (AID 1535)
T3 sequence (P34949 whole entry): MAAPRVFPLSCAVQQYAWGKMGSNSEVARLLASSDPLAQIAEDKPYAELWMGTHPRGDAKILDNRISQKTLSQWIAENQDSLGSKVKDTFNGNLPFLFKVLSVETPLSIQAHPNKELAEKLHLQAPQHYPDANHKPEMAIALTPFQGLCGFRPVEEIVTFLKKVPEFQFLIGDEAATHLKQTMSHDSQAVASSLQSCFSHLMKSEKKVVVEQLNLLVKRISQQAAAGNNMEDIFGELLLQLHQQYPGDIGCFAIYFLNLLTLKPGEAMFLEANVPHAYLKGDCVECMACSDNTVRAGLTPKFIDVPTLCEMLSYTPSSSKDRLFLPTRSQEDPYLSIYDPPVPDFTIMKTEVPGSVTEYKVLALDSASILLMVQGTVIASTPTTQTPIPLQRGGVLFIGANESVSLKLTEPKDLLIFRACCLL

HEK293 [6] = experiment: cells; format: functional, cell-based; conditions: Homo sapiens
HEK293 [7] = experiment: cells; format: functional, cell-based; conditions: Homo sapiens; remark: listed apart in the source
[8] = viability loss in HeLa cells – cytotoxicity control for MgcRacGAP inhibitor project, dose response (AID 624300); format: functional
HEK293 [9] = experiment: NOD2 signaling inhibitors in MDP-stimulated cells, cell-based, uHTS, luminescence (AID 2001); format: functional; conditions: Homo sapiens
[10] = molecular target: T4, Corticotropin-releasing factor receptor 2/Corticotropin-releasing factor-binding protein (Homo sapiens, UniProt P24387+Q13324); experiment: Dose Response confirmation of uHTS hits for small molecule antagonists of the CRF-binding protein and CRF-R2 receptor complex.; format: functional; conditions: read-out: IC50_Mean
T4 sequence (Q13324 whole entry): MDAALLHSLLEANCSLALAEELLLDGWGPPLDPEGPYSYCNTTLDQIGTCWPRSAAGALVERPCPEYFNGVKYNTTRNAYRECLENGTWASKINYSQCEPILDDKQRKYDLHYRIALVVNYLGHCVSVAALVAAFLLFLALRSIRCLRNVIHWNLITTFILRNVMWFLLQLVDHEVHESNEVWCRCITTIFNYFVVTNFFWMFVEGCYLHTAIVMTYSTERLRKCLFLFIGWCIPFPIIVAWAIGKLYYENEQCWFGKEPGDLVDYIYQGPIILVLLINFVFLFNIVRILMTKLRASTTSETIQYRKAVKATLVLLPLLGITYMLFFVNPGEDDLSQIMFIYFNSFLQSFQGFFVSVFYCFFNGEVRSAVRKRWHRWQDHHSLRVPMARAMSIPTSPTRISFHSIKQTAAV
T4 sequence (P24387 whole entry): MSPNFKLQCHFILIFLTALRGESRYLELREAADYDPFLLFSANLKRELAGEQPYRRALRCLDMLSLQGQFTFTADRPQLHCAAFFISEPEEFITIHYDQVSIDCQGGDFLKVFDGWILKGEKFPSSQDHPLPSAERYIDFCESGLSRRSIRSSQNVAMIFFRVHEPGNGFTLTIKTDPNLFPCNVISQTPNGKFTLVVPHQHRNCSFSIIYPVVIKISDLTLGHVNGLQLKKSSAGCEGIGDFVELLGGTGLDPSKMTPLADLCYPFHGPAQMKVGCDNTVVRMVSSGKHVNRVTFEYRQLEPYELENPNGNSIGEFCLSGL

[11] = blockers of CRF-binding protein–CRF-R2 complex – cell-based, uHTS hits, 384-well, dose response (AID 651639); format: functional, Homo sapiens; conditions: read-out: IC50_Mean
HEK293 [12] = experiment: cells; format: functional, cell-based; conditions: Homo sapiens; remark: listed apart in the source
[13] = molecular target: Nucleotide-binding oligomerization domain-containing protein 2 (Homo sapiens, UniProt Q9HC29); experiment: inhibition of NOD2-driven NF-kB reporter – cell-based, luminescence, uHTS, HEK293 (AID 1566); format: functional
Chain of Nucleotide-binding oligomerization domain-containing protein 2 (Q9HC29 whole entry, the tested form may be a part): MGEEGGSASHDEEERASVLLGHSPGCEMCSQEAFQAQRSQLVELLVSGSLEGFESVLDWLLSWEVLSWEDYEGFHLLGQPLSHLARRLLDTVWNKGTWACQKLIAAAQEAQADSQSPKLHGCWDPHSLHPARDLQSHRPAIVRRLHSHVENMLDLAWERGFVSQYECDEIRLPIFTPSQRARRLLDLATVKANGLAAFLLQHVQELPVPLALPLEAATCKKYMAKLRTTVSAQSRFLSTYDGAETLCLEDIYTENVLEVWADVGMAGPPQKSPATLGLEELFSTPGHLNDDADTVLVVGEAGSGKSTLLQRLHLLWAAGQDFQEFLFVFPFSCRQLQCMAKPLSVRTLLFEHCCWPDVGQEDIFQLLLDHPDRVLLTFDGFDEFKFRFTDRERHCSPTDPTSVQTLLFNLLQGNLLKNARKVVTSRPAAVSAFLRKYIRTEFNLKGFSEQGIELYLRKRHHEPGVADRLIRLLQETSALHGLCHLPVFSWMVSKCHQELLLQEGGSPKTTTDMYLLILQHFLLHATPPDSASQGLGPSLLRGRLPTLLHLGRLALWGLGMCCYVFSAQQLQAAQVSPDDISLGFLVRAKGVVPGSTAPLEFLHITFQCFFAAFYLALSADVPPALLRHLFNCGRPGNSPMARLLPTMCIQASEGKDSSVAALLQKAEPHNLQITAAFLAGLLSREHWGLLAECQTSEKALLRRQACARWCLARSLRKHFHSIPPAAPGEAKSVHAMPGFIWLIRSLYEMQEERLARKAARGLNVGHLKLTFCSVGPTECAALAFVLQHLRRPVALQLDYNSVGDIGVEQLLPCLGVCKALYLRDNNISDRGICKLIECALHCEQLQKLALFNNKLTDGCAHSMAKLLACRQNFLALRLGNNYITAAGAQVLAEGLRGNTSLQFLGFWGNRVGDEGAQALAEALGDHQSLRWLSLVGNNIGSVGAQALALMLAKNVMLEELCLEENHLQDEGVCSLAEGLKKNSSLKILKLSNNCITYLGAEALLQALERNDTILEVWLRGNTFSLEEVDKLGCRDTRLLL

[14] = molecular target: T5, Rac GTPase-activating protein 1 (Homo sapiens, UniProt Q9H0H5); experiment: blockers of MgcRacGAP-driven Rac1 GTP hydrolysis – biochemical, ADP Hunter fluorescence, primary and confirmatory, confirmation (AID 624330); format: functional
T5 sequence (Q9H0H5 whole entry): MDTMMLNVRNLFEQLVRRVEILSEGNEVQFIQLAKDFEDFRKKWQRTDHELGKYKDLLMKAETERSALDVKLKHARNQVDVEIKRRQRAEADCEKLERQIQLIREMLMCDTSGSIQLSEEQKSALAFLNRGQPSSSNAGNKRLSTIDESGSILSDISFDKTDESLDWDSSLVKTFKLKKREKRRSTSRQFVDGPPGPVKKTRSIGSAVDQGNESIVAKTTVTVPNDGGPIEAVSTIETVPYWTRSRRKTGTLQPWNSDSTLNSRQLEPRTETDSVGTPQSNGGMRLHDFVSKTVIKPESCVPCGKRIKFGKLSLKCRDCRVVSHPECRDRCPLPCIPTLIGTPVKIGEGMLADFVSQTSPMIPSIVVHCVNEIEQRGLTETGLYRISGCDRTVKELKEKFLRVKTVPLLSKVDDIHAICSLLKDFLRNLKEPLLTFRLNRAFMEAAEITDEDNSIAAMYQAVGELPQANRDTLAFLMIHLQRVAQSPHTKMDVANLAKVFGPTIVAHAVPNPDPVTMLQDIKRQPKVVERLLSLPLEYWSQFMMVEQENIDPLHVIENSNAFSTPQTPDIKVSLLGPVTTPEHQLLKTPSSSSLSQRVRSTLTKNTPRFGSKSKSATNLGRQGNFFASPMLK

[15] = molecular target: T4, Corticotropin-releasing factor receptor 2/Corticotropin-releasing factor-binding protein; experiment: activators of CRF receptor 2 with binding protein – uHTS hits, confirmation (AID 602473); format: functional; conditions: read-out: EC50_Mean
HEK293 [16] = experiment: inhibition of NOD1-driven NF-kB reporter – cell-based, luminescence, uHTS, primary screen (AID 1578); format: functional; conditions: Homo sapiens
[17] = molecular target: T6, Nuclear receptor subfamily 0 group B member 1 (Homo sapiens, UniProt P51843); experiment: Luminescence-based cell-based high throughput dose response assay for inhibitors of the orphan nuclear receptor subfamily 0, group B, member 1 (DAX1; NR0B1). [Related pubchem assays (depositor defined):AID504766, AID504790]; format: functional
T6 sequence (P51843 whole entry): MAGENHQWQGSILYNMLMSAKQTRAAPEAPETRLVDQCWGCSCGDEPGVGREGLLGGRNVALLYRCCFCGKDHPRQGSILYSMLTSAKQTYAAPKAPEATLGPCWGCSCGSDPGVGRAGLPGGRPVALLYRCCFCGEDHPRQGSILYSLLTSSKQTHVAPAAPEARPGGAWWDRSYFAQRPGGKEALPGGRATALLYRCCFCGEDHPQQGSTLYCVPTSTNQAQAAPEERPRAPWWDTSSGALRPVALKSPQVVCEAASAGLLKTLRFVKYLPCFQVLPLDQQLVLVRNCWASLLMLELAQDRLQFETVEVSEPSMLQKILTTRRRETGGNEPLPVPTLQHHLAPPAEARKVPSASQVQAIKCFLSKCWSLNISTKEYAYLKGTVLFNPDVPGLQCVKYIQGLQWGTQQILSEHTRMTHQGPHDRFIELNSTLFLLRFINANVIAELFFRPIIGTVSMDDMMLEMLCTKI

HEK293 [18] = experiment: cells; format: functional, cell-based; conditions: Homo sapiens; remark: listed apart in the source
Phospholipase A2 = Phospholipase A2 (Homo sapiens, UniProt P04054); format: functional;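 further: confirmatory dose-response counterscreen on phospholipase A2, testing hits that came from an ultra-high-throughput screen for ATG4B inhibitors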
Chain of Phospholipase A2 (P04054 whole entry): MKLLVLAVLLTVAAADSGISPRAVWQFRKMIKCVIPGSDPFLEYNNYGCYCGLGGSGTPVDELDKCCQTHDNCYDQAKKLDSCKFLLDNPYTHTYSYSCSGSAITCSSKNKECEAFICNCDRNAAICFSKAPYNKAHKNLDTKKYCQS

Cysteine protease ATG4B = molecular target: T7, Cysteine protease ATG4B (Homo sapiens, UniProt Q9Y4P1); format: functional;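 further: Fluorescence-based dose-response confirmation assay measuring inhibition of ATG4B activity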
T7 sequence (Q9Y4P1 whole entry): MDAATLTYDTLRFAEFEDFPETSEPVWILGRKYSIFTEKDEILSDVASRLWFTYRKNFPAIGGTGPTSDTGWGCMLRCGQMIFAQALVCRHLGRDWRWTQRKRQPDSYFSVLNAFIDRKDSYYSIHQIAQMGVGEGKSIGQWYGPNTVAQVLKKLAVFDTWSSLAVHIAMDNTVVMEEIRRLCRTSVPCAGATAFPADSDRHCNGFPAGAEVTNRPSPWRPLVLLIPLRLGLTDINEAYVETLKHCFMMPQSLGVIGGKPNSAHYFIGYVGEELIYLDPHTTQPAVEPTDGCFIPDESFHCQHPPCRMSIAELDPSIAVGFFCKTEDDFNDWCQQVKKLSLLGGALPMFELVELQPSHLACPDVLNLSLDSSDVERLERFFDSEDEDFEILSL

Streptococcus = experiment: GAS UMAA2166 growth inhibition – luminescence, BacTiterGlo, counter-screen for streptokinase expression inhibitor project, dose response (AID 1915); format: functional, organism-based;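 further: potency for reduction of bacterial viability or growth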
[19] = test system: Streptococcus sp. 'group A'; experiment: Streptococcus pyogenes SK(-)GAS viability under kanamycin – luminescence, BacTiterGlo, confirmation, counter-screen for streptokinase expression inhibitor project, dose response (AID 1900); format: functional, organism-based
[20] = molecular target: Induced myeloid leukemia cell differentiation protein Mcl-1 (Homo sapiens, UniProt Q07820); format: functional

T1 sequence (Q00975 whole entry): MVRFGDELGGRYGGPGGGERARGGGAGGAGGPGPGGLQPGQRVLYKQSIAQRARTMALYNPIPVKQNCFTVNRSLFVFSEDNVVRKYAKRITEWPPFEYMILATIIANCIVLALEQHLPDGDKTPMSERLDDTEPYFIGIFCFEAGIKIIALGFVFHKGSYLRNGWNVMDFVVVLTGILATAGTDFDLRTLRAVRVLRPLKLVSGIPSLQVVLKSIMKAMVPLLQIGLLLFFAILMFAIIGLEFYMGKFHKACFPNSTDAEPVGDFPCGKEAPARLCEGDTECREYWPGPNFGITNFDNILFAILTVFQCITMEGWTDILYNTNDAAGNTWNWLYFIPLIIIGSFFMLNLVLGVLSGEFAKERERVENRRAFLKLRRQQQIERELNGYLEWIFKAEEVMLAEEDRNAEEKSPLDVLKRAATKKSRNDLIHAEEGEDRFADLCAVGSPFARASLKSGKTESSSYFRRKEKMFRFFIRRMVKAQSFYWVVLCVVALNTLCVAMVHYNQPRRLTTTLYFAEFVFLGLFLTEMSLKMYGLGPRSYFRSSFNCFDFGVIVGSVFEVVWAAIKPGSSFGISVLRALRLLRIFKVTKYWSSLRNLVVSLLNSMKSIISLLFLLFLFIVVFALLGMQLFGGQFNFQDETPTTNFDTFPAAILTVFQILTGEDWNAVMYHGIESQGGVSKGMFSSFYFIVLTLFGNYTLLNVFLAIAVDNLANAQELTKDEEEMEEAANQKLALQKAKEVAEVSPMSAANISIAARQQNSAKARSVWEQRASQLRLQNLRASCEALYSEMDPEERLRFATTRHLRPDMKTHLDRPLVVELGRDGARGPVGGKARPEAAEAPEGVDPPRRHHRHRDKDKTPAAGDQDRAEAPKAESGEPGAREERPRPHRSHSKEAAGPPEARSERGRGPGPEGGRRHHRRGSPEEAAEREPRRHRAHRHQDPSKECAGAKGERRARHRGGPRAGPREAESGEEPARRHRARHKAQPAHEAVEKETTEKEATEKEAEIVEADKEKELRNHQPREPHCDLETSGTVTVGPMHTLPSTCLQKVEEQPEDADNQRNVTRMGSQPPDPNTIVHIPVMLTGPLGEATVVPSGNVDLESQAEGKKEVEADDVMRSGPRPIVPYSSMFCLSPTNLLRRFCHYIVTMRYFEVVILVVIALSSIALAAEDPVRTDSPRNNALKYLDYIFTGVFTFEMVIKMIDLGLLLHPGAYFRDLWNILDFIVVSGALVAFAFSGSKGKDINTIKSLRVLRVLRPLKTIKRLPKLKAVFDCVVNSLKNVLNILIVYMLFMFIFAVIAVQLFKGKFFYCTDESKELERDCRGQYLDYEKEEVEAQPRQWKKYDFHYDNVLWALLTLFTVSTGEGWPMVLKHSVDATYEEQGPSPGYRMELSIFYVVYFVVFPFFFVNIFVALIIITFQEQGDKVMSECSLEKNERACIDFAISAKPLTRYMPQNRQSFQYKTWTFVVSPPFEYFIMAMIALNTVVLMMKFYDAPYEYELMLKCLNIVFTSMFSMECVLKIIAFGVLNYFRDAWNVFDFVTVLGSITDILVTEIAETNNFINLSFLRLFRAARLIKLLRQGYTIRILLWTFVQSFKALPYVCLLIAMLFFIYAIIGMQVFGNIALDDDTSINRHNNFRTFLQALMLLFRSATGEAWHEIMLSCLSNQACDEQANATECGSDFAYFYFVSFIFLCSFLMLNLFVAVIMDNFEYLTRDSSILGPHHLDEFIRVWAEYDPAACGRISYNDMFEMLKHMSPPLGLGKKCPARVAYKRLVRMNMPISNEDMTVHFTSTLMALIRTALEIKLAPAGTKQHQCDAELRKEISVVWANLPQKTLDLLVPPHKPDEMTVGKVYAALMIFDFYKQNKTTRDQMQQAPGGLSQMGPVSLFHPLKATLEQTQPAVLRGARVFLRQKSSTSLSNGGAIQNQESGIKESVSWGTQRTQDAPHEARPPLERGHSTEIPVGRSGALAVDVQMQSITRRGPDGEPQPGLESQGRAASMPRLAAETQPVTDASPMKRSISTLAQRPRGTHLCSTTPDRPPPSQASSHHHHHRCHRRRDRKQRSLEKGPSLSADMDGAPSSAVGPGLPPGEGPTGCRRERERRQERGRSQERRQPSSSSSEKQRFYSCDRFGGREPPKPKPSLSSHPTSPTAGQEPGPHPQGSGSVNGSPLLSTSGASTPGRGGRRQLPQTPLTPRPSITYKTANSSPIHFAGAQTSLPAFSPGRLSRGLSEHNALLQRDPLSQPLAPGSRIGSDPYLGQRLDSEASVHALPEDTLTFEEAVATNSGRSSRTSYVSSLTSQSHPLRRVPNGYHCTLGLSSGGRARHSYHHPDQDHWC
T1 sequence (Q02410 whole entry): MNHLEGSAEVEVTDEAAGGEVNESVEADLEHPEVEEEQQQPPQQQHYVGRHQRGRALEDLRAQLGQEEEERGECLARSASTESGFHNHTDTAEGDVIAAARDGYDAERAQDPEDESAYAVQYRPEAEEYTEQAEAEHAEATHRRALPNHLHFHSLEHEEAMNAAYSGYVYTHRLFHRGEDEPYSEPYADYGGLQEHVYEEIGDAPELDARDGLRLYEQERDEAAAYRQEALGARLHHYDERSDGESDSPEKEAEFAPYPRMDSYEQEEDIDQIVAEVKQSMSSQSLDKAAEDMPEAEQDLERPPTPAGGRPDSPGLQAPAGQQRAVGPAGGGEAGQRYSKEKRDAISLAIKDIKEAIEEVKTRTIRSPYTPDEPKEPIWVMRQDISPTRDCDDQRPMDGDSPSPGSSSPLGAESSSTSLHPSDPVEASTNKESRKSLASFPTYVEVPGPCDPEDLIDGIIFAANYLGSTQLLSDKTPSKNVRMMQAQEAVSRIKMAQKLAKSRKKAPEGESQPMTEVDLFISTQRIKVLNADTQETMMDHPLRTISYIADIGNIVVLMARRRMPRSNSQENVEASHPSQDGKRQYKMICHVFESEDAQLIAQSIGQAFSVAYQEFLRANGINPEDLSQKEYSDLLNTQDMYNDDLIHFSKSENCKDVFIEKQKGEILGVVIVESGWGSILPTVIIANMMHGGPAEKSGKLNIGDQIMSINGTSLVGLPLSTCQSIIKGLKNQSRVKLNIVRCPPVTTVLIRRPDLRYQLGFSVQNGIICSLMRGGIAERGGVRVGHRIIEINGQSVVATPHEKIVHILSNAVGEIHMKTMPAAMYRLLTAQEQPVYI

Q: Which results are given for `O=c1[nH]sc2ccccc12`?
A: IC50 [1]: > 50 µM (inactive); IC50 (Large T antigen): 32.3 µM (active); EC50 [2]: 15.7 µM (active); EC50 [3]: 0.524 µM (active); IC50 [4]: 12.2 µM (active); IC50 (Phosphomannomutase 2): > 100 µM (inactive); IC50 [5]: > 50 µM (inactive)

Q: Which IC50 (HEK293 [6]) does the source give for `Cc1[nH]n(-c2cccc(Cl)c2)c(=O)c1-c1ccc(Cl)cc1` here?
A: > 20 µM (inactive)

Q: And the IC50 (HEK293 [7])?
A: 14.2 µM (active)

Q: What about the CC50 [8] of the same compound?
A: 100 µM (active)

Q: What about the IC50 (HEK293 [9]) of the same compound?
A: 9.97 µM (inactive)

Q: And the IC50 [10]?
A: 0.98 µM (active)

Q: And the IC50 [11]?
A: > 20 µM (inactive)

Q: What about the IC50 (HEK293 [12]) of the same compound?
A: > 20 µM (inactive)

Q: What about the EC50 [13] of the same compound?
A: 12.8 µM (active)

Q: What about the IC50 [14] of the same compound?
A: 80 µM (active)

Q: And the EC50 [15]?
A: > 53 µM (inactive)

Q: And the EC50 (HEK293 [16])?
A: 2.43 µM (active)

Q: Which results are given for `O=S(=O)(NCc1ccc2c(c1)OCO2)c1ccc(F)cc1`?
A: IC50 [17]: > 67.6 µM (inactive); IC50 (HEK293 [18]): > 67.6 µM (inactive)

Q: With `Nc1nn(-c2ccccc2)c(N)c1N=Nc1ccc2c(c1)OCO2` as the compound, how does the IC50 (Phospholipase A2) read?
A: 10.4 µM (active)

Q: What about the IC50 (Cysteine protease ATG4B) of the same compound?
A: 15.9 µM (active)

Q: What does the source list for `O=[N+]([O-])c1ccc(/C=N/NC(=S)Nc2ccc(Cl)cc2Cl)s1`?
A: EC50 (Streptococcus): 2.56 µM (active); IC50 (HEK293 [6]): > 20 µM (inactive); IC50 (HEK293 [7]): 11.4 µM (active); EC50 [19]: 2.38 µM (active); IC50 (HEK293 [9]): 7.77 µM (inactive); EC50 [3]: 0.651 µM (active); IC50 [20]: 4.67 µM (active); IC50 (HEK293 [12]): 17.3 µM (active); EC50 [13]: > 20 µM (inactive); EC50 (HEK293 [16]): 6.09 µM (active)
